Source: US20230364172A1, “MODULATION OF SOLUBILITY, PALATABILITY, ABSORPTION, AND BIOAVAILABILITY OF MITRAGYNA SPECIOSA-DERIVED COMPOUNDS FOR ORAL AND BUCCAL DELIVERY” (Syncotrance, LLC, priority 2022, published 2023)
Values joined by “and” are separate entries in the source; they are usually repeats but may differ in a detail not shown here. Equal entries are not always repeated. Structures can show the parent of a compound that is named as a salt. Where two headings read alike, the source gives them in different places.

What was measured:
[1] = cited from earlier work
[2] = Premix vs water for taste masking of sports nutrition active ingredients (Example M); conditions: 1.5 g dose in Premix
Method: The supplements were suspended in a premix or water for reference. The active ingredients and their dosages were selected to simulate a sports nutrition drink prepared in a small blender (200 ml volume).
The panelists were asked to rate aversiveness/palatability and provide a brief description of off-flavors.

[3] = Physicochemical properties of mitragynine (pKa, Log P, aqueous solubility), literature
Excerpt: Mitragynine is an indole alkaloid comprising 66% of total alkaloids in extracts of Mitragyna speciosa leaves (Adkins, J. E., Boyer, E. W., McCurdy, C. R., 2011. Mitragyna speciosa, a psychoactive tree from Southeast Asia with opioid activity. Curr. Top. Med. Chem. 11, 1165-1175) (Ponglux, D., Wongseripipatana, S., Takayama, H., Kikuchi, M., Kurihara, M., Kitajima, M., Aimi, N., Sakai, S., 1994. A new indole alkaloid, 7 alpha-Hydroxy-7H-mitragynine, from Mitragyna speciosa in Thailand. Planta Med. 60, 580-581.). […] The compound is moderately stable at neutral pH (^˜3.5% degradation after 3 h) but degraded at pH 1.2 (by 26% degradation after 1-2 hr) (Manda, V. K., Avula, B., Ali, Z., Khan, I. A., Walker, L. A., Khan, S. I., 2014. Evaluation of in vitro absorption, distribution, metabolism, and excretion (ADME) properties of mitragynine, 7-hydroxymitragynine, and mitraphylline. Planta Med. 80, 568-576) (Ramanathan, S., Parthasarathy, S., Murugaiyah, V., Magosso, E., Tan, S. C., Mansor, S. M., 2015. Understanding the physicochemical properties of mitragynine, a principal alkaloid of Mitragyna speciosa, for preclinical evaluation. Molecules 20, 4915-4927). […]

[4] = rats; cited from earlier work
[5] = cited from earlier work; remark: listed apart in the source
[6] = cited from earlier work; remark: listed apart in the source
[7] = Phase separation of Kratom/Premix emulsion by visual observation (Example C)
[8] = 1% w/v, 0.1 mM quinine hydrochloride solution; cited from earlier work

Molecule: CC[C@@H]1CN2CCc3c([nH]c4cccc(OC)c34)[C@H]2C[C@@H]1/C(=C\OC)C(=O)OC (stereo in doubt) [mitragynine hydrochloride]
- absolute oral bioavailability of mitragynine ([1]; rats, oral in comparison to intravenous administration): 17.0%

Molecule: NCC(=O)[O-].NCC(=O)[O-].[Mg+2] [Magnesium Glycinate]
- pH in Premix [2]: flavors. pH 10.3 caused

Molecule: CC[C@@H]1CN2CCc3c([nH]c4cccc(OC)c34)[C@@H]2C[C@@H]1/C(=C\OC)C(=O)OC [Mitragynine]
- Biopharmaceutical Classification System (BCS) class [3]: Class II
- % AUCbrain/AUCplasma [4]: 65.8±4.5%
- degradation ([5]; neutral pH, after 3 h): ~3.5%
- degradation ([5]; pH 1.2, after 1-2 hr): 26%
- pKa [6]: 8.1
- solubility in aqueous media ([6]; pH 4): 130 μM and 51.8 μg/ml
- solubility in a saliva type fluid ([6]; pH 6.5): 64.6±1.2 μcg/mL
- solubility in aqueous media ([6]; pH 7): 83 μM and 33.1 μg/ml
- bioavailability ([1]; oral administration in rats, calculated from other studies by Ya et al.): ~21%

Molecule: Polysorbate 80
- phase separation ([7]; Polysorbate 80 0.3% w/v final, added to Final Mix): separated
- phase separation ([7]; Polysorbate 80 0.3% w/v final, added to liquid extract): separated
- phase separation ([7]; Polysorbate 80 0.3% w/v final, added to premix): separated
- phase separation ([7]; Polysorbate 80 0.5% w/v final, added to Final Mix): separated
- phase separation ([7]; Polysorbate 80 0.5% w/v final, added to liquid extract): stable
- phase separation ([7]; Polysorbate 80 0.5% w/v final, added to premix): separated
- phase separation ([7]; Polysorbate 80 1% w/v final, added to Final Mix): separated
- phase separation ([7]; Polysorbate 80 1% w/v final, added to liquid extract): stable
- phase separation ([7]; Polysorbate 80 1% w/v final, added to premix): stable
- phase separation ([7]; Polysorbate 80 1.5% w/v final, added to Final Mix): stable
- phase separation ([7]; Polysorbate 80 1.5% w/v final, added to liquid extract): stable
- phase separation ([7]; Polysorbate 80 1.5% w/v final, added to premix): stable

Molecule: phosphatidic acid
- bitterness-depressing effect due to adsorption [8]: 36.1%
- bitterness-depressing effect due to suppression at the receptor site [8]: 45.6%
- suppression of bitterness [8]: 81.7%
